Data set [1] deals with PC-12. The data set can be described thus: Neuritogenic activity in rat PC12 cells at 100 uM after 16 hrs. In kind it is functional, cell-based.
For data set [2], the system named is PC-12. The data set can be described thus: Cytotoxicity against rat PC12 cells assessed as effect on LDH release at 33 uM after 24 hrs. The conditions noted are these: pc-12, 24 h. In kind it is cell-based.
Data set [3] has as its system PC-12. The data set can be described thus: Cytotoxicity against rat PC12 cells assessed as effect on LDH release at 100 uM after 24 hrs. In kind it is cell-based. The conditions noted are these: pc-12, 24 h.
Data set [4] deals with PC-12. The data set can be described thus: Cytotoxicity against rat PC12 cells assessed as effect on LDH release after 24 hrs. In kind it is cell-based. The conditions noted are these: pc-12, 24 h.

Three compounds from ChEMBL document CHEMBL1150677, “Novel tetramic acids and pyridone alkaloids, militarinones B, C, and D, from the insect pathogenic fungus Paecilomyces militaris” (J Nat Prod, 2003) can be followed below.

Active and inactive are the calls of the source. No cut-off for these calls is given here.

On to `CC[C@@H](C)C[C@@H](C)/C=C(C)/C=C/C=C/C(=O)c1c(O)c(-c2ccc(O)cc2)c[nH]c1=O` (relative stereo) [MILITARINONE B], for which, in data set [1], the outcome was inactive. The Activity in data set [2] was determined as 30.7%; in data set [3], 74%.

`CC[C@@H](C)C[C@@H](C)/C=C(C)/C=C/C=C/C(O)=C1\C(=O)NC(C(O)c2ccc(O)cc2)C1=O` (relative stereo) [MILITARINONE C]: the result in data set [1] was Active. Further, in data set [3], the Activity is reported as 16.8%.

With `CC[C@@H](C)C[C@@H](C)/C=C(C)/C=C/C=C/C(O)=C1\C(=O)NC(Cc2ccc(O)cc2)C1=O` (relative stereo) [MILITARINONE D], the result in data set [1] was Active. Also, the Activity result in data set [4] is “Non-toxic”.
